The results in this text go back to US7994189B2, “Dihydropyridine derivatives” (N.V. Organon, priority 2005, dated 2011).

The target in the assay is T1, human FSH receptor (Homo sapiens, UniProt P23945).
T1 construct: expressed in transfected cells; host or cells: Chinese Hamster Ovary (CHO) cells
T1 sequence (P23945 18-695): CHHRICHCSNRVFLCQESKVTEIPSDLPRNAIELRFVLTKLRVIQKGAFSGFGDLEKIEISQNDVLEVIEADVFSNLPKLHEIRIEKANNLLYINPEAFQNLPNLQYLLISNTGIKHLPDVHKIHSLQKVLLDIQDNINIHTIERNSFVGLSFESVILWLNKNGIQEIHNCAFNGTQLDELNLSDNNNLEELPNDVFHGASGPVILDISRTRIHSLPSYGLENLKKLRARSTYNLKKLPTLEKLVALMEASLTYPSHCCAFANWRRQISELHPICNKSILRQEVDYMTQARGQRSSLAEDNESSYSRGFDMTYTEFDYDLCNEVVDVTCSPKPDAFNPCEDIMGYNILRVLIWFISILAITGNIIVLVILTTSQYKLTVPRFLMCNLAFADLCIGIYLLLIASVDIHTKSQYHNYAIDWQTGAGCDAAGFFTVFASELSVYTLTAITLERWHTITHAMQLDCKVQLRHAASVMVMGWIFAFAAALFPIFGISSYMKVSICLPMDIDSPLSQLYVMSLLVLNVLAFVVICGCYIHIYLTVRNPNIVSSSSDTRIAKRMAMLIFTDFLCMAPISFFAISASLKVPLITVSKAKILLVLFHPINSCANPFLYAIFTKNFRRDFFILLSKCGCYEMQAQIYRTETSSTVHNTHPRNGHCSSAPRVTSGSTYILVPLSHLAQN
The assay is described as follows: CHO-FSH in vitro bioactivity (CRE/luciferase reporter gene). Conditions: CHO cells stably transfected with the human FSH receptor and CRE/firefly luciferase reporter; luminescence; read-out: EC50 (concentration of test compound causing half-maximal (50%) stimulation). The class given is cell-based. How it is done: CHO-FSH In Vitro Bioactivity
FSH activity of compounds were tested in Chinese Hamster Ovary (CHO) cells stably transfected with the human FSH receptor and cotransfected with a cAMP responsive element (CRE)/promotor directing the expression of a firefly luciferase reporter gene. Binding of ligand to the Gs-coupled FSH receptor will result in an increase of cAMP, which in turn will induce an increased transactivation of the luciferase reporter construct. The luciferase signal was quantified using a luminescence counter. For test compounds, EC50 values (concentration of test compound causing half-maximal (50%) stimulation) were calculated. For that purpose the software program GraphPad PRISM, version 3.0 (GraphPad software Inc., San Diego) was used.

For `CCCC1CC(=O)C2=C(C1)NC(C)=C(C#N)C2c1cc(Br)c(OCc2cccc(C(=O)NCC(=O)OC)c2)c(OCC)c1` (centres unmarked) [Example 24, Glycine N-3-[2-bromo-4-(3-cyano-2-methyl-5-oxo-7-propyl-1,4,5,6,7,8-hexahydroquinolin-4-yl)-6-ethoxyphenoxymethyl]benzoyl methyl ester], the EC50 was less than 1 nM.

Turning to `CCCC1CC(=O)C2=C(C1)NC(C)=C(C#N)C2c1cc(Br)c(OCc2ccc(C(=O)NCc3cccs3)cc2)c(OCC)c1` (centres unmarked) [Example 29, 4-[2-Bromo-4-(3-cyano-2-methyl-5-oxo-7-propyl-1,4,5,6,7,8-hexahydroquinolin-4-yl)-6-ethoxyphenoxymethyl]-N-thiophen-2-ylmethylbenzamide], the EC50 was less than 1 nM.
